Data reported in EP0831093A1, “1-Carba-(dethia)-Cephalosporin Derivatives” (F. HOFFMANN-LA ROCHE AG, priority 1996, dated 1998).
In brackets after ≈: the same amount, converted by molar mass. Structures can show the parent of a compound that is named as a salt. Where two headings read alike, the source gives them in different places.

Legend:
Assay in all cases: MIC, agar dilution method in Mueller Hinton agar
Type in all cases: cell-based
C.freundii 43 = details: Citrobacter freundii
Protocol: (§1) In vitro activity was determined by minimum inhibitory concentration in a microorganism spectum by the agar dilution method in Mueller Hinton agar, inoculum = 10^4 CFU/spot.

C.freundii 902 = details: Citrobacter freundii
Protocol: as §1

E.cloacae 908R = details: Enterobacter cloacae
Protocol: as §1

E.cloacae 908SSi = details: Enterobacter cloacae
Protocol: as §1

E.coli 25922 = details: Escherichia coli
Protocol: as §1

E.coli TEM1 = details: Escherichia coli
Protocol: as §1

E.faecalis 6 = details: Enterococcus faecalis
Protocol: as §1

K.pneumoniae 418 = details: Klebsiella pneumoniae
Protocol: as §1

P.aeruginosa ATCC27853 = details: Pseudomonas aeruginosa
Protocol: as §1

P.mirabilis 2117 = details: Proteus mirabilis
Protocol: as §1

P.vulgaris 1028 = details: Proteus vulgaris
Protocol: as §1

S.aureus 6538 = details: Staphylococcus aureus
Protocol: as §1

S.aureus 743 (MRSA) = details: Staphylococcus aureus
Protocol: as §1

S.marcescens 69438 = details: Serratia marcescens
Protocol: as §1

S.pneumoniae. 907 = details: Streptococcus pneumoniae
Protocol: as §1

S.pyogenes b 15 = details: Streptococcus pyogenes
Protocol: as §1

[1] = C.freundii 43, inoculum = 10^4 CFU/spot, read-out: MIC
[2] = C.freundii 902, inoculum = 10^4 CFU/spot, read-out: MIC
[3] = E.cloacae 908R, inoculum = 10^4 CFU/spot, read-out: MIC
[4] = E.cloacae 908SSi, inoculum = 10^4 CFU/spot, read-out: MIC
[5] = E.coli 25922, inoculum = 10^4 CFU/spot, read-out: MIC
[6] = E.faecalis 6, inoculum = 10^4 CFU/spot, read-out: MIC
[7] = K.pneumoniae 418, inoculum = 10^4 CFU/spot, read-out: MIC
[8] = P.aeruginosa ATCC27853, inoculum = 10^4 CFU/spot, read-out: MIC
[9] = P.vulgaris 1028, inoculum = 10^4 CFU/spot, read-out: MIC
[10] = S.aureus 6538, inoculum = 10^4 CFU/spot, read-out: MIC
[11] = S.aureus 743 (MRSA), inoculum = 10^4 CFU/spot, read-out: MIC
[12] = S.marcescens 69438, inoculum = 10^4 CFU/spot, read-out: MIC
[13] = S.pneumoniae. 907, inoculum = 10^4 CFU/spot, read-out: MIC
[14] = S.pyogenes b 15, inoculum = 10^4 CFU/spot, read-out: MIC
[15] = P.mirabilis 2117, inoculum = 10^4 CFU/spot, read-out: MIC

Structure (SMILES)	MIC (E.coli TEM1) [µg/mL]	MIC (C.freundii 43; [1]) [µg/mL]	MIC (C.freundii 902; [2]) [µg/mL]	MIC (E.cloacae 908R; [3]) [µg/mL]	MIC (E.cloacae 908SSi; [4]) [µg/mL]	MIC (E.coli 25922; [5]) [µg/mL]	MIC (E.faecalis 6; [6]) [µg/mL]	MIC (K.pneumoniae 418; [7]) [µg/mL]	MIC (P.aeruginosa ATCC27853; [8]) [µg/mL]	MIC (P.vulgaris 1028; [9]) [µg/mL]	MIC (S.aureus 6538; [10]) [µg/mL]	MIC (S.aureus 743 (MRSA); [11]) [µg/mL]	MIC (S.marcescens 69438; [12]) [µg/mL]	MIC (S.pneumoniae. 907; [13]) [µg/mL]	MIC (S.pyogenes b 15; [14]) [µg/mL]	MIC (P.mirabilis 2117; [15]) [µg/mL]	also measured
Nc1nc(/C(=N/O)C(=O)N[C@@H]2C(=O)N3C(C(=O)[O-])=C(/C=C4\CCN(CC(F)(F)F)C4=O)CC[C@H]23)cs1.[Na+] [A, (6R,7S)-7-[(Z)-2-(2-Amino-thiazol-4-yl)-2-hydroxyimino-acetylamino]-8-oxo-3-[(E)-2-oxo-1-(2,2,2-trifluoro-ethyl)-pyrrolidin-3-ylidenemethyl]-1-aza-bicyclo[4.2.0]oct-2-ene-2-carboxylic acid sodium salt (1:1)]	0.12																MIC (C.freundii 43; 43): 8 µg/mL; MIC (C.freundii 902; 902): 0.25 µg/mL; MIC (E.cloacae 908R; 908R): > 32 µg/mL; MIC (E.cloacae 908SSi; 908SSI): 2 µg/mL; MIC (E.coli 25922; 25922): ≤ 0.06 µg/mL; MIC (E.faecalis 6; 6): 8 µg/mL; MIC (K.pneumoniae 418; 418): 0.12 µg/mL; MIC (P.aeruginosa ATCC27853; ATCC27853): 32 µg/mL; MIC (P.mirabilis 2117; 2117): ≤ 0.06 µg/mL; MIC (P.vulgaris 1028; 1028): > 32 µg/mL; MIC (S.aureus 6538; 6538): 1 µg/mL; MIC (S.aureus 743 (MRSA); MRSA): 32 µg/mL; MIC (S.marcescens 69438; 69438): 2 µg/mL; MIC (S.pneumoniae. 907): ≤ 0.06 µg/mL; MIC (S.pyogenes b 15; 15): ≤ 0.06 µg/mL
Nc1nc(/C(=N/O)C(=O)N[C@@H]2C(=O)N3C(C(=O)O)=C(/C=C4\CCN(c5ccc(O)cc5)C4=O)CC[C@H]23)cs1 [B, (6R,7S)-7-[(Z)-2-(Amino-thiazol-4-yl)-2-hydroxyimino-acetylamino]-3-[(E)-1-(4-hydroxy-phenyl)-2-oxo-pyrrolidin-3-ylidenemethyl]-8-oxo-1-aza-bicyclo[4.2.0]oct-2-ene-2-carboxylic acid sodium salt (1:1)]	0.12	32	0.5	> 32	0.5	0.25	4	0.12	32	> 32	1	32	4	≤ 0.06	≤ 0.06		
C[n+]1cccc(N2CC/C(=C\C3=C(C(=O)[O-])N4C(=O)[C@@H](NC(=O)/C(=N\O)c5csc(N)n5)[C@H]4CC3)C2=O)c1 [C, (6R,7S)-7-[(Z)-2-(2-Amino-thiazol-4-yl)-2-hydroxyimino-acetylamino]-3-[(E)-1-(1-methyl-pyridin-1-ium-3-yl)-2-oxo-pyrrolidin-3-ylidenemethyl]-8-oxo-1-aza-bicyclo[4.2.0]oct-2-ene-2-carboxylate]	≤ 0.06	0.5 (≈ 0.93 µM)	≤ 0.06	2 (≈ 3.72 µM)	≤ 0.06	≤ 0.06	0.5 (≈ 0.93 µM)	≤ 0.06	4 (≈ 7.44 µM)	16 (≈ 29.8 µM)	1 (≈ 1.86 µM)	8 (≈ 14.9 µM)	0.12 (≈ 0.223 µM)	≤ 0.06	≤ 0.06	≤ 0.06	
C[n+]1cccc(N2CC/C(=C\C3=C(C(=O)[O-])N4C(=O)[C@@H](NC(=O)/C(=N\O)c5nsc(N)n5)[C@H]4CC3)C2=O)c1 [D, (6R,7S)-7-[(Z)-2-(5-Amino-[1,2,4]thiadiazol-3-yl)-hydroxyimino-acetylamino]-3-[(E)-1-(1-methyl-pyridin-1-ium-3-yl)-2-oxo-pyrrolidin-3-ylidenemethyl]-8-oxo-1-aza-bicyclo[4.2.0]oct-2-ene-2-carboxylate]	0.25 (≈ 0.464 µM)	0.5 (≈ 0.928 µM)	≤ 0.06	1 (≈ 1.86 µM)	0.12 (≈ 0.223 µM)	0.06 (≈ 0.111 µM)	0.25 (≈ 0.464 µM)	≤ 0.06	8 (≈ 14.9 µM)	> 32	0.5 (≈ 0.928 µM)	8 (≈ 14.9 µM)	0.12 (≈ 0.223 µM)	≤ 0.06	≤ 0.06	0.12 (≈ 0.223 µM)	
C[n+]1cccc(N2CC/C(=C\C3=C(C(=O)[O-])N4C(=O)[C@@H](NC(=O)/C(=N\OC5CCCC5)c5nsc(N)n5)[C@H]4CC3)C2=O)c1 [E, (6R,7S)-7-[(Z)-2-(5-Amino-[1,2,4]thiadiazol-3-yl)-cyclopentyloximino-acetylamino]-3-[(E)-1-(1-methyl-pyridin-1-ium-3-yl)-2-oxo-pyrroliden-3-ylidenemethyl]-8-oxo-1-aza-bicyclo[4.2.0]oct-2-ene-2-carboxylate]	1 (≈ 1.65 µM)	0.5 (≈ 0.824 µM)	≤ 0.06	0.5 (≈ 0.824 µM)	≤ 0.06	≤ 0.06	1 (≈ 1.65 µM)	0.25 (≈ 0.412 µM)	8 (≈ 13.2 µM)	32 (≈ 52.7 µM)	0.5 (≈ 0.824 µM)	4 (≈ 6.59 µM)	1 (≈ 1.65 µM)	≤ 0.06	≤ 0.06	2 (≈ 3.3 µM)	
C[n+]1cccc(N2CC/C(=C\C3=C(C(=O)[O-])N4C(=O)[C@@H](NC(=O)/C(=N\OCC(=O)O)c5csc(N)n5)[C@H]4CC3)C2=O)c1 [F, (6R,7S)-7-[(Z)-2-(2-Amino-thiazol-4-yl)-2-carboxymethoxyimino-acetylamino]-3-[(E)-1-(1-methyl-pyridin-1-ium-3-yl)-2-oxo-pyrrolidin-3-ylidenemethyl]-8-oxo-1-aza-bicyclo[4.2.0]oct-2-ene-2-carboxylate Na salt (1:1)]	≤ 0.06	2	≤ 0.06	4	≤ 0.06	≤ 0.06	> 32	≤ 0.06	1	0.12	32	> 32	≤ 0.06	≤ 0.06	0.12	≤ 0.06	
C[n+]1ccc(N2CC/C(=C\C3=C(C(=O)[O-])N4C(=O)[C@@H](NC(=O)/C(=N\OC5CCCC5)c5csc(N)n5)[C@H]4CC3)C2=O)cc1 [G, (6R,7S)-7-[(Z)-2-(2-Amino-thiazol-4-yl)-2-cyclopentyloxyimino-acetylamino]-3-[(E)-1-(1-methyl-pyridin-1-ium-4-yl)-2-oxo-pyrrolidin-3-ylidenemethyl]-8-oxo-1-aza-bicyclo[4.2.0]oct-2-ene-2-carboxylate]	0.5 (≈ 0.826 µM)	1 (≈ 1.65 µM)	≤ 0.06	2 (≈ 3.3 µM)	≤ 0.06	≤ 0.06	1 (≈ 1.65 µM)	0.25 (≈ 0.413 µM)	4 (≈ 6.6 µM)	16 (≈ 26.4 µM)	2 (≈ 3.3 µM)	32 (≈ 52.8 µM)	0.5 (≈ 0.826 µM)	≤ 0.06	≤ 0.06	1 (≈ 1.65 µM)	
